Assay results published in patent publication US20260285850A1, “SUBSTITUTED OXAZOLIDINONES AND IMIDAZOLINONES AS HERBICIDES” (FMC CORPORATION, priority 2023, published 2026).

Tests used:
Assay type in all cases: in vivo
[1] = test system: palmer (palmer amaranth, palmer pigweed, Amaranthus palmeri); test: Test A preemergence soil spray, visual injury rating 0-100; details: 10 days
Outline: (§1)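 Grow plants in loam soil blended with sand. Apply formulated compound (non-phytotoxic solvent, surfactant) as a directed soil spray before emergence, or to plants at the one- to two-leaf stage after emergence. Hold in greenhouse 10 days, then rate injury visually versus untreated controls on a 0-100 scale.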

[2] = test system: ragweed (common ragweed, Ambrosia artemisiifolia); test: as above; details: 10 days
Outline: as §1

[3] = test system: blackgrass (Alopecurus myosuroides); test: as above; details: 10 days
Outline: as §1

[4] = test system: wheat (Triticum aestivum); test: as above; details: 10 days
Outline: as §1

[5] = test system: green foxtail (Setaria viridis); test: as above; details: 10 days
Outline: as §1

[6] = test system: oat, wild (wild oat, Avena fatua); test: as above; details: 10 days
Outline: as §1

[7] = test system: corn (Zea mays); test: as above; details: 10 days
Outline: as §1

[8] = test system: soybean (Glycine max); test: as above; details: 10 days
Outline: as §1

[9] = test system: kochia (Bassia scoparia); test: as above; details: 10 days
Outline: as §1

[10] = test system: barnyardgrass (Echinochloa crus-galli); test: as above; details: 10 days
Outline: as §1

[11] = test system: ryegrass, Italian (italian ryegrass, Lolium multiflorum); test: as above; details: 10 days
Outline: as §1

[12] = test system: palmer (palmer amaranth, palmer pigweed, Amaranthus palmeri); test: Test A postemergence application, visual injury rating 0-100
Outline: as §1

[13] = test system: ragweed (common ragweed, Ambrosia artemisiifolia); test: as above
Outline: as §1

[14] = test system: blackgrass (Alopecurus myosuroides); test: as above
Outline: as §1

[15] = test system: horseweed (Erigeron canadensis); test: as above
Outline: as §1

[16] = test system: galium (catchweed bedstraw, Galium aparine); test: as above
Outline: as §1

[17] = test system: wheat (Triticum aestivum); test: as above
Outline: as §1

[18] = test system: green foxtail (Setaria viridis); test: as above
Outline: as §1

[19] = test system: oat, wild (wild oat, Avena fatua); test: as above
Outline: as §1

[20] = test system: corn (Zea mays); test: as above
Outline: as §1

[21] = test system: soybean (Glycine max); test: as above
Outline: as §1

[22] = test system: kochia (Bassia scoparia); test: as above
Outline: as §1

[23] = test system: barnyardgrass (Echinochloa crus-galli); test: as above
Outline: as §1

[24] = test system: ryegrass, Italian (italian ryegrass, Lolium multiflorum); test: as above
Outline: as §1

[25] = test system: rice (Oryza sativa); test: Test B flooded paddy test, visual plant response rating 0-100; details: 250 g ai/ha, Flood, applied to paddy water, evaluated after 13 days
Outline: (§2)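 Visual evaluation after 13 days. Water-applied treatment, 3 cm flood depth held constant, plants at 2-leaf stage at treatment.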

[26] = test system: ducksalad (Heteranthera limosa); test: as above; details: 250 g ai/ha, Flood, applied to paddy water, evaluated after 13 days
Outline: as §2

[27] = test system: barnyardgrass (Echinochloa crusgalli); test: as above; details: 250 g ai/ha, Flood, applied to paddy water, evaluated after 13 days
Outline: as §2

[28] = test system: sedge, umbrella (small-flower umbrella sedge, Cyperus difformis); test: as above; details: 250 g ai/ha, Flood, applied to paddy water, evaluated after 13 days
Outline: as §2

[29] = 62 g ai/ha, 0 = no effect, 100 = complete control
[30] = 62 g ai/ha, postemergence, 10 days, 0 = no effect, 100 = complete control
[31] = Postemergence, 16 g ai/ha, greenhouse 10 days, 0 no effect, 100 complete control

For CC1(C(=O)NC2CC(C(=O)OCC(F)(F)F)C2)CN(c2cc(F)cc(F)c2)C(=O)O1 (stereo not shown) [Compound 121], the “Pigweed, Palmer plant response rating” value ([1]; 16 g ai/ha, 0 to 100 scale) was 0, the “Pigweed, Palmer plant response rating (0-100)” value [1, 29] was 70 and the “Ragweed plant response rating” value ([2]; 16 g ai/ha, 0 to 100 scale) was 0. For the same compound, the “Ragweed plant response rating (0-100)” value [2, 29] was 0, the “Blackgrass plant response rating” value ([3]; 16 g ai/ha, 0 to 100 scale) was 50 and the “Blackgrass plant response rating (0-100)” value [3, 29] was 90. For the same compound, the “Wheat plant response rating” value ([4]; 16 g ai/ha, 0 to 100 scale) was 40, the “Wheat plant response rating (0-100)” value [4, 29] was 80 and the “Foxtail, Green plant response rating” value ([5]; 16 g ai/ha, 0 to 100 scale) was 0. The “Foxtail, Green plant response rating (0-100)” value [5, 29] was 90, the “Oat, Wild plant response rating” value ([6]; 16 g ai/ha, 0 to 100 scale) was 90 and the “Oat, Wild plant response rating (0-100)” value [6, 29] was 90. For the same compound, the “Corn plant response rating” value ([7]; 16 g ai/ha, 0 to 100 scale) was 20, the “Corn plant response rating (0-100)” value [7, 29] was 90 and the “Soybean plant response rating” value ([8]; 16 g ai/ha, 0 to 100 scale) was 0. For the same compound, the “Soybean plant response rating (0-100)” value [8, 29] was 0, the “Kochia plant response rating” value ([9]; 16 g ai/ha, 0 to 100 scale) was 0 and the “Kochia plant response rating (0-100)” value [9, 29] was 70. For the same compound, the “Barnyardgrass plant response rating” value ([10]; 16 g ai/ha, 0 to 100 scale) was 0, the “Barnyardgrass plant response rating (0-100)” value [10, 29] was 80 and the “Ryegrass, Italian plant response rating” value ([11]; 16 g ai/ha, 0 to 100 scale) was 50. The “Ryegrass, Italian plant response rating (0-100)” value [11, 29] was 90, the “Pigweed, Palmer plant response rating (0-100)” value [12, 30] was 70 and the “Pigweed, Palmer plant response rating (0 to 100 scale)” value [12, 31] was 0. The “Ragweed plant response rating (0-100)” value [13, 30] was 0, the “Ragweed plant response rating (0 to 100 scale)” value [13, 31] was 0 and the “Blackgrass plant response rating (0-100)” value [14, 30] was 100. For the same compound, the “Blackgrass plant response rating (0 to 100 scale)” value [14, 31] was 90, the “Horseweed plant response rating (0-100)” value [15, 30] was 10 and the “Horseweed plant response rating (0 to 100 scale)” value [15, 31] was 0. The “Galium plant response rating (0-100)” value [16, 30] was 60, the “Galium plant response rating (0 to 100 scale)” value [16, 31] was 30 and the “Wheat plant response rating (0-100)” value [17, 30] was 90. The “Wheat plant response rating (0 to 100 scale)” value [17, 31] was 90, the “Foxtail, Green plant response rating (0-100)” value [18, 30] was 90 and the “Foxtail, Green plant response rating (0 to 100 scale)” value [18, 31] was 70. For the same compound, the “Oat, Wild plant response rating (0-100)” value [19, 30] was 90, the “Oat, Wild plant response rating (0 to 100 scale)” value [19, 31] was 40 and the “Corn plant response rating (0-100)” value [20, 30] was 100. For the same compound, the “Corn plant response rating (0 to 100 scale)” value [20, 31] was 100, the “Soybean plant response rating (0-100)” value [21, 30] was 70 and the “Soybean plant response rating (0 to 100 scale)” value [21, 31] was 50. For the same compound, the “Kochia plant response rating (0-100)” value [22, 30] was 70, the “Kochia plant response rating (0 to 100 scale)” value [22, 31] was 10 and the “Barnyardgrass plant response rating (0-100)” value [23, 30] was 100. The “Barnyardgrass plant response rating (0 to 100 scale)” value [23, 31] was 60, the “Ryegrass, Italian plant response rating (0-100)” value [24, 30] was 70 and the “Ryegrass, Italian plant response rating (0 to 100 scale)” value [24, 31] was 20. For the same compound, the “Plant response rating, Rice (0 to 100 scale, 0 is no effect and 100 is complete control)” value [25] was 0, the “Plant response rating, Ducksalad (0 to 100 scale, 0 is no effect and 100 is complete control)” value [26] was 0 and the “Plant response rating, Barnyardgrass (0 to 100 scale, 0 is no effect and 100 is complete control)” value [27] was 0. The “Plant response rating, Sedge, Umbrella (0 to 100 scale, 0 is no effect and 100 is complete control)” value [28] was 0.
